Laboratory results reported in the NIST ThermoML archive (doi:10.1016/j.jct.2006.03.021).

Experiment: molar heat capacity at constant pressure
Settings: 101.33 kPa, Crystal, Vacuum adiabatic calorimetry

O.O.OC[C@H]1O[C@H](O[C@H]2O[C@H](CO)[C@@H](O)[C@H](O)[C@H]2O)[C@H](O)[C@@H](O)[C@@H]1O [D-(+)-trehalose dihydrate]
Settings	molar heat capacity at constant pressure [J/K/mol]
13.55 K	6.385
14.6 K	7.838
15 K	8.51
15.59 K	9.345
16.61 K	10.96
17.67 K	12.73
18.75 K	14.64
19.81 K	16.57
20 K	16.78
20.85 K	18.51
21.9 K	20.53
22.93 K	22.57
23.97 K	24.62
25.02 K	26.77
26.11 K	29
27.24 K	31.35
28.42 K	33.79
29.57 K	36.22
30 K	37.06
30.71 K	38.61
31.92 K	41.15
33.18 K	43.81
34.5 K	46.58
35.82 K	49.36
37.15 K	52.14
38.46 K	54.9
39.78 K	57.62
40 K	58.13
41.15 K	60.45
42.54 K	63.33
43.91 K	66.14
45.27 K	68.9
46.63 K	71.67
48.02 K	74.49
49.43 K	77.32
50 K	78.42
50.88 K	80.24
52.39 K	83.22
53.93 K	86.27
55.51 K	89.39
56.3 K	90.95
57.99 K	94.25
59.66 K	97.53
60 K	98.14
61.39 K	100.85
63.18 K	104.27
64.99 K	107.74
66.83 K	111.22
68.66 K	114.67
70 K	117.19
70.49 K	118.11
72.33 K	121.52
74.17 K	124.94
76.04 K	128.4
77.89 K	131.81
79.75 K	135.21
80 K	135.65
81.63 K	138.61
83.51 K	142.01
85.4 K	145.39
87.31 K	148.81
89.22 K	152.17
90 K	153.54
91.14 K	155.56
93.09 K	158.95
95.06 K	162.41
97.04 K	165.84
98.99 K	169.18
100 K	170.91
100.9 K	172.45
102.78 K	175.65
104.63 K	178.78
106.45 K	181.89
108.25 K	184.88
110 K	187.82
110.03 K	187.85
111.78 K	190.76
113.51 K	193.65
115.22 K	196.52
116.9 K	199.3
118.57 K	202
120 K	204.35
120.3 K	204.92
122.1 K	207.75
123.94 K	210.99
125.83 K	213.81
127.75 K	216.99
129.72 K	220.18
130 K	220.6
131.71 K	223.29
133.7 K	226.52
135.72 K	229.81
137.73 K	232.95
139.73 K	236.18
140 K	236.57
141.73 K	239.27
143.74 K	242.56
145.72 K	245.6
147.72 K	248.78
149.71 K	251.89
150 K	252.32
151.71 K	254.95
153.75 K	258.14
155.79 K	261.37
157.84 K	264.6
159.89 K	267.82
160 K	267.93
161.93 K	270.95
163.96 K	274.13
165.96 K	277.24
167.95 K	280.33
169.92 K	283.36
170 K	283.46
171.88 K	286.43
173.83 K	289.42
175.76 K	292.43
177.63 K	295.3
179.56 K	298.22
180 K	299
181.49 K	301.33
183.41 K	304.3
185.35 K	307.28
187.29 K	310.3
189.22 K	313.27
190 K	314.53
191.14 K	316.25
193.07 K	319.27
195.02 K	322.27
196.95 K	325.32
198.87 K	328.28
200 K	330.09
200.8 K	331.37
202.74 K	334.35
204.67 K	337.37
206.6 K	340.29
208.53 K	343.33
210 K	345.69
210.48 K	346.48
212.42 K	349.61
214.34 K	352.52
216.28 K	355.42
220 K	361.36
220.18 K	361.71
222.12 K	364.67
224.04 K	367.73
225.95 K	370.88
227.85 K	373.65
229.74 K	376.66
230 K	377.12
231.62 K	379.52
233.49 K	382.68
235.35 K	385.55
237.2 K	388.42
239.04 K	391.36
240 K	392.98
240.87 K	394.34
242.69 K	397.3
244.52 K	400.18
246.37 K	403.04
248.24 K	406.16
250 K	408.95
250.12 K	409.17
252 K	412.27
253.8 K	415.1
255.61 K	417.77
257.43 K	420.98
259.28 K	423.94
260 K	425.06
261.14 K	426.99
263.01 K	430.01
264.88 K	433.05
266.76 K	435.05
268.64 K	439.07
270 K	441.31
270.53 K	442.21
272.4 K	445.33
274.28 K	448.34
276.17 K	451.18
278.06 K	454.48
279.95 K	457.55
280 K	457.7
281.85 K	460.72
283.75 K	463.95
285.66 K	466.99
287.57 K	470.12
289.49 K	473.55
290 K	474.26
291.41 K	476.85
293.32 K	479.88
295.23 K	482.95
297.16 K	486.02
298.15 K	487.87
299.07 K	489.45
300 K	490.98
300.98 K	492.63
